According to US7220720B2, “Melanin-concentrating hormone analogs” (Merk & Co., Inc., priority 2000, dated 2007):
Where two headings read alike, the source gives them in different places. Each block holds one molecule with its values, some of them ahead of it. Where a SMILES comes first, the peptide text is derived from it. Bridges are numbered along the chain shown (N, C = ends).

Key:
[1] = biological target: T1, human MCH receptor (Homo sapiens, UniProt Q99705); experiment: Radiolabeled MCH-R binding assay: inhibition of [125I]-human MCH (Phe13, Tyr19 substituted) binding to cell membranes (filter or SPA format); set-up: expressed in transfected cells; conditions: read-out: Activity IC50
T1 sequence (Q99705 whole entry): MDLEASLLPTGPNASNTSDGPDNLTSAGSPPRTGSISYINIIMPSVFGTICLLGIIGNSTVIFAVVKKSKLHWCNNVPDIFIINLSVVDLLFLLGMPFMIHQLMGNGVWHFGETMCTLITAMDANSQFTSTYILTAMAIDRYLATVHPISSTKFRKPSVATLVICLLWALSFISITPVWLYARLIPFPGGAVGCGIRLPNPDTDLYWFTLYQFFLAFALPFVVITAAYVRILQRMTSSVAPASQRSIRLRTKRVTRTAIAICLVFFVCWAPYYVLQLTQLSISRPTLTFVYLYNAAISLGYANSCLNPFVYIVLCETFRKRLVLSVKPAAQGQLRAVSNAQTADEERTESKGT
Procedure: Cell membranes were prepared on ice. Each T-75 flask was rinsed twice with 10 ml of Enzyme-free Cell Dissociation Buffer (Specialty Media, Lavallette, N.J.), and the cell monolayer was detached in an additional 10 ml of Enzyme-free Cell Dissociation Buffer by incubation at room temperature for 10 minutes. Dissociated cells were centrifuged (500×g for 10 minutes at 4° C.), resuspended in 5 ml homogenization buffer (10 mM Tris-HCl, pH 7.4, 0.01 mM Pefabloc, 10 μM phosphoramidon, 40 μg/ml bacitracin) and then homogenized using a glass homogenizer (10–15 strokes). The homogenate was centrifuged for 10 minutes (1,000×g at 4° C.). The resulting supernatant was then centrifuged at 38,700×g for 15 minutes at 4° C. Pelleted membranes were resuspended (passed through 25 gauge needle 5 times), snap-frozen on liquid nitrogen, and stored at −80° C. until use.
Binding was performed in a 96-well filter assay or Scintillation Proximity Assay (SPA)-based format using cell membranes from a stable CHO or HEK-293 cell line expressing the MCH receptor. For the filter assay, reactions were performed at 20° C. for 1 hour in a total volume of 0.2 ml containing: 0.05 ml of membrane suspension (˜3 μg protein), 0.02 ml of [^125I]-human MCH (Phe^13, Tyr^19 substituted; 30 pM), 0.01 ml of competitor and 0.12 ml of binding buffer (50 mM Tris-HCl, pH 7.4, 10 mM MgCl2, 2 mM EDTA, 200 μg/ml bacitracin, 1 μM phosphoramidon).
Bound radioligand was separated by rapid vacuum filtration (Packard Filtermate 96-well cell harvester) through GF/C filters pretreated for 1 hour with 1% polyethylenimine. After application of the membrane suspension to the filter, the filters were washed 3 times with 3 ml each of ice-cold 50 mM Tris-HCl, pH 7.4, 10 mM MgCl2, 2 mM EDTA, 0.04% Tween 20 and the bound radioactivity on the filters was quantitated by scintillation counting (TopCount device).
For the SPA-based assay, WGA-PVT beads (NEN Life Sciences Products) were resuspended in Dulbecco's PBS with calcium and magnesium (500 mg beads in 4 ml PBS). For each 96-well assay plate, 0.18 ml of beads was pre-coated with MCH receptor by mixing with 0.2 ml MCH receptor CHO cell membranes (˜0.2–4 mg protein) and 1.5 ml SPA assay buffer (50 mM Tris-HCl, pH 7.4, 10 mM MgCl2, 2 mM EDTA, 0.1% BSA, 12% glycerol). The suspension was mixed gently for 20 minutes, 12.3 ml of assay buffer and protease inhibitors were added (final concentration given): 2 μg/ml leupeptin, 10 μM phosphoramidon, 40 μg/ml bacitracin, 5 μg/ml aprotinin, 0.1 mM Pefabloc.
Coated beads were kept on ice until use. For each well, 0.145 ml of beads were added to Optiplate assay plates (Packard 6005190), followed by 0.002–0.004 ml of competitor and 0.05 ml of [^125I]-human MCH (Phe^13, Tyr^19 substituted; 30 pM). Binding reactions were allowed to proceed at room temperature for 3 hours. Quantitation was performed by scintillation counting (TopCount device).

[2] = biological target: T1, human MCH receptor; experiment: Aequorin bioluminescence functional assay in 293-AEQ17 cells transfected with human MCH receptor; type: cell-based; set-up: expressed in transfected cells; host or cells: 293-AEQ17 (aequorin-expressing HEK-293 reporter line), transient lipofectamine transfection, pcDNA-3 vector; Activity Activation %: concentration or dose not given beside the values; conditions: for % Activation at 10 μM: Table 1, aequorin functional assay
Procedure: The aequorin bioluminescence assay is a reliable test for measuring the activity of G protein-coupled receptors that couple through the Gα protein subunit family consisting of Gq and Gll and leads to the activation of phospholipase C, mobilization of intracellular calcium and activation of protein kinase C.
Following approximately 40 hours of expression the apo-aequorin in the cells was charged for 4 hours with coelenterazine (10 μM) under reducing conditions (300 μM reduced glutathione) in ECB buffer (140 mM NaCl, 20 mM KCl, 20 mM HEPES-NaOH [pH=7.4], 5 mM glucose, 1 mM MgCl2, 1 mM CaCl2, 0.1 mg/ml bovine serum albumin).
The cells were harvested, washed once in ECB medium and resuspended to 500,000 cells/ml. 100 μl of cell suspension (corresponding to 5×10^4 cells) was then injected into the test plate containing MCH or MCH analogs, and the integrated light emission was recorded over 30 seconds, in 0.5 second units. 20 μL of lysis buffer (0.1% final Triton X-100 concentration) was then injected and the integrated light emission recorded over 10 seconds, in 0.5 second units. The “fractional response” values for each well were calculated by taking the ratio of the integrated response to the initial challenge to the total integrated luminescence including the Triton X-100 lysis response.

[3] = Table 3, N-methyl-amino acid analogs
[4] = Table 5, position 10 modification
[5] = Table 4, position 6 modification
[6] = Table 6, position 13 modification
[7] = Table 7, combinations and position 8

SMILES: CSCC[C@@H]1NC(=O)[C@@H](NC(=O)[C@H](CCCNC(=N)N)NC(C)=O)CSSC[C@@H](C(N)=O)NC(=O)[C@@H]2CCCN2C(=O)[C@H](CCCNC(=N)N)NC(=O)[C@H](Cc2ccc(O)cc2)NC(=O)[C@H](C(C)C)NC(=O)[C@H](CCCNC(=N)N)NC(=O)CNC(=O)[C@H](CC(C)C)NC1=O [compound 7]
IC50 ([1]; Table 2, D-amino acid analogs): 0.5 nM
IC50 [1, 3]: 1.4 nM
IC50 [1, 4]: 0.5 nM
% Activation at 10 μM [2]: 123%
Activity Activation % ([2]; Table 2, D-amino acid analogs): 99%
EC50 ([2]; Table 2, D-amino acid analogs): 20 nM
Activity Activation % [2, 3]: 99%
EC50 [2, 3]: 20 nM
Activity Activation % [2, 5]: 99%
Activity Activation % [2, 4]: 99%
EC50 [2, 4]: 20 nM
Activity Activation % [2, 6]: 99%
EC50 [2, 6]: 20 nM
Activity Activation % [2, 7]: 99%
EC50 [2, 7]: 20 nM

SMILES: CSCC[C@@H]1NC(=O)[C@@H](NC(=O)[C@H](CCCNC(=N)N)NC(=O)[C@H](CC(C)C)NC(=O)[C@H](CCSC)NC(=O)[C@H](CC(=O)O)NC(=O)[C@H](Cc2ccccc2)NC(=O)[C@@H](N)CC(=O)O)CSSC[C@@H](C(=O)N[C@@H](Cc2c[nH]c3ccccc23)C(=O)N[C@@H](CCC(N)=O)C(=O)N[C@H](C(=O)O)C(C)C)NC(=O)[C@@H]2CCCN2C(=O)[C@H](CCCNC(=N)N)NC(=O)[C@H](Cc2ccc(O)cc2)NC(=O)[C@H](C(C)C)NC(=O)[C@H](CCCNC(=N)N)NC(=O)CNC(=O)[C@H](CC(C)C)NC1=O [compound 11]
% Activation at 10 μM [2]: 100%
Activity Activation % ([2]; Table 2, D-amino acid analogs): 100%
Activity Activation % [2, 3]: 100%
Activity Activation % [2, 5]: 100%
Activity Activation % [2, 4]: 100%
Activity Activation % [2, 6]: 100%
Activity Activation % [2, 7]: 100%

SMILES: CSCC[C@@H]1NC(=O)[C@@H](NC(=O)[C@H](C)NC(C)=O)CSSC[C@@H](C(N)=O)NC(=O)[C@@H]2CCCN2C(=O)[C@H](CCCNC(=N)N)NC(=O)[C@H](Cc2ccc(O)cc2)NC(=O)[C@H](C(C)C)NC(=O)[C@H](CCCNC(=N)N)NC(=O)CNC(=O)[C@H](CC(C)C)NC1=O [compound 31] (Ac-ACMLGRVYRPC-NH2; disulfide 2-11 (inferred))
Activity Activation % [2, 5]: 135%

SMILES: CSCC[C@@H]1NC(=O)[C@@H](NC(=O)[C@@H]2CCCN2C(C)=O)CSSC[C@@H](C(N)=O)NC(=O)[C@@H]2CCCN2C(=O)[C@H](CCCNC(=N)N)NC(=O)[C@H](Cc2ccc(O)cc2)NC(=O)[C@H](C(C)C)NC(=O)[C@H](CCCNC(=N)N)NC(=O)CNC(=O)[C@H](CC(C)C)NC1=O [compound 33]
Activity Activation % [2, 5]: 133%

SMILES: CSCC[C@@H]1NC(=O)[C@@H](NC(=O)[C@H](CC(N)=O)NC(C)=O)CSSC[C@@H](C(N)=O)NC(=O)[C@@H]2CCCN2C(=O)[C@H](CCCNC(=N)N)NC(=O)[C@H](Cc2ccc(O)cc2)NC(=O)[C@H](C(C)C)NC(=O)[C@H](CCCNC(=N)N)NC(=O)CNC(=O)[C@H](CC(C)C)NC1=O [compound 34]
Activity Activation % [2, 5]: 96%

SMILES: CSCC[C@@H]1NC(=O)[C@@H](NC(=O)[C@H](CO)NC(C)=O)CSSC[C@@H](C(N)=O)NC(=O)[C@@H]2CCCN2C(=O)[C@H](CCCNC(=N)N)NC(=O)[C@H](Cc2ccc(O)cc2)NC(=O)[C@H](C(C)C)NC(=O)[C@H](CCCNC(=N)N)NC(=O)CNC(=O)[C@H](CC(C)C)NC1=O [compound 35]
Activity Activation % [2, 5]: 120%

SMILES: CSCC[C@@H]1NC(=O)[C@@H](N)CSSC[C@@H](C(N)=O)NC(=O)[C@@H]2CCCN2C(=O)[C@H](CCCNC(=N)N)NC(=O)[C@H](Cc2ccc(O)cc2)NC(=O)[C@H](C(C)C)NC(=O)[C@H](CCCNC(=N)N)NC(=O)CNC(=O)[C@H](CC(C)C)NC1=O [compound 37]
Activity Activation % [2, 5]: 120%

SMILES: CSCC[C@@H]1NC(=O)[C@@H](NC(C)=O)CSSC[C@@H](C(N)=O)NC(=O)[C@@H]2CCCN2C(=O)[C@H](CCCNC(=N)N)NC(=O)[C@H](Cc2ccc(O)cc2)NC(=O)[C@H](C(C)C)NC(=O)[C@H](CCCNC(=N)N)NC(=O)CNC(=O)[C@H](CC(C)C)NC1=O [compound 38]
Activity Activation % [2, 5]: 82%

The remaining lines, values ahead:

Activity Activation % [2, 5]: 113%
SMILES: CSCC[C@@H]1NC(=O)[C@@H](NC(=O)[C@H](CCC(=O)O)NC(C)=O)CSSC[C@@H](C(N)=O)NC(=O)[C@@H]2CCCN2C(=O)[C@H](CCCNC(=N)N)NC(=O)[C@H](Cc2ccc(O)cc2)NC(=O)[C@H](C(C)C)NC(=O)[C@H](CCCNC(=N)N)NC(=O)CNC(=O)[C@H](CC(C)C)NC1=O [compound 36]

Activity Activation % [2, 5]: 106%
SMILES: CSCC[C@@H]1NC(=O)[C@@H](NC(=O)[C@@H](N)CCCNC(=N)N)CSSC[C@@H](C(N)=O)NC(=O)[C@@H]2CCCN2C(=O)[C@H](CCCNC(=N)N)NC(=O)[C@H](Cc2ccc(O)cc2)NC(=O)[C@H](C(C)C)NC(=O)[C@H](CCCNC(=N)N)NC(=O)CNC(=O)[C@H](CC(C)C)NC1=O [compound 39]

Activity Activation % [2, 4]: 104%
SMILES: CSCC[C@@H]1NC(=O)[C@@H](NC(=O)[C@H](CCCNC(=N)N)NC(C)=O)CSSC[C@@H](C(N)=O)NC(=O)[C@@H]2CCCN2C(=O)[C@H](CCCNC(=N)N)NC(=O)[C@H](Cc2ccc(O)cc2)NC(=O)[C@H](C(C)C)NC(=O)[C@H](CCCNC(=N)N)NC(=O)[C@H](C)NC(=O)[C@H](CC(C)C)NC1=O [compound 47] (Ac-RCMLARVYRPC-NH2; disulfide 2-11)

Activity Activation % [2, 4]: 106%
SMILES: CSCC[C@@H]1NC(=O)[C@@H](NC(=O)[C@H](CCCNC(=N)N)NC(C)=O)CSSC[C@@H](C(N)=O)NC(=O)[C@@H]2CCCN2C(=O)[C@H](CCCNC(=N)N)NC(=O)[C@H](Cc2ccc(O)cc2)NC(=O)[C@H](C(C)C)NC(=O)[C@H](CCCNC(=N)N)NC(=O)[C@H](CC(C)C)NC(=O)[C@H](CC(C)C)NC1=O [compound 48]

Activity Activation % [2, 4]: 106%
EC50 [2, 4]: 23 nM
SMILES: CSCC[C@@H]1NC(=O)[C@@H](NC(=O)[C@H](CCCNC(=N)N)NC(C)=O)CSSC[C@@H](C(N)=O)NC(=O)[C@@H]2CCCN2C(=O)[C@H](CCCNC(=N)N)NC(=O)[C@H](Cc2ccc(O)cc2)NC(=O)[C@H](C(C)C)NC(=O)[C@H](CCCNC(=N)N)NC(=O)[C@H](CC(N)=O)NC(=O)[C@H](CC(C)C)NC1=O [compound 51] (Ac-RCMLNRVYRPC-NH2; disulfide 2-11)

Activity Activation % [2, 4]: 104%
SMILES: CSCC[C@@H]1NC(=O)[C@@H](NC(=O)[C@H](CCCNC(=N)N)NC(C)=O)CSSC[C@@H](C(N)=O)NC(=O)[C@@H]2CCCN2C(=O)[C@H](CCCNC(=N)N)NC(=O)[C@H](Cc2ccc(O)cc2)NC(=O)[C@H](C(C)C)NC(=O)[C@H](CCCNC(=N)N)NC(=O)[C@H](CO)NC(=O)[C@H](CC(C)C)NC1=O [compound 52] (Ac-RCMLSRVYRPC-NH2; disulfide 2-11 (inferred))

Activity Activation % [2, 6]: 96%
SMILES: CSCC[C@@H]1NC(=O)[C@@H](NC(=O)[C@H](CCCNC(=N)N)NC(C)=O)CSSC[C@@H](C(N)=O)NC(=O)[C@@H]2CCCN2C(=O)[C@H](CCCNC(=N)N)NC(=O)[C@H](Cc2ccccc2)NC(=O)[C@H](C(C)C)NC(=O)[C@H](CCCNC(=N)N)NC(=O)CNC(=O)[C@H](CC(C)C)NC1=O [compound 62]
